Data: patent publication US20110045101A1, “FUNGICIDAL SUBSTITUTED AZOLES” (E.I. Du Pont De Nemours and Company, priority 2009, published 2011)
Marks after values point to notes of the source that are not given here.

How the values were obtained:
Format in all cases: in vivo
[1] = tested on: Septoria nodorum; assay: Test F: wheat glume blotch on wheat seedlings, sprayed the day before inoculation, visual disease rating; settings: 100 = 100% disease control; for pest or weed control at 200 ppm: Parastagonospora nodorum, 264 h
Procedure, shortened: (§1)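 Compounds were dissolved in acetone (3% of final volume), then suspended in 50/50 acetone/purified water with 250 ppm Trem® 014 surfactant. Suspensions at 200 ppm (some at 40 ppm) were sprayed to run-off, 200 ppm being equivalent to 500 g/ha.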

[2] = tested on: Botrytis cinerea; assay: Test C: tomato Botrytis on tomato seedlings, sprayed the day before inoculation, visual disease rating; settings: 100 = 100% disease control; for pest or weed control at 200 ppm: Botrytis cinerea, 120 h
Procedure, shortened: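 Compounds were dissolved in acetone (3% of final volume), then suspended in 50/50 acetone/purified water containing 250 ppm polyhydric alcohol ester surfactant. Suspensions were sprayed to run-off on tomato seedlings at 200 ppm, equivalent to 500 g/ha, or at 40 ppm where marked.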

[3] = tested on: Erysiphe graminis f. sp. tritici; assay: Test J: wheat powdery mildew on wheat seedlings, sprayed the day before inoculation, visual disease rating; settings: 100 = 100% disease control; for pest or weed control at 200 ppm: Blumeria graminis, 168 h
Procedure, shortened: as §1

[4] = tested on: Puccinia recondita f. sp. tritici; assay: Test I: wheat leaf rust on wheat seedlings, sprayed the day before inoculation, visual disease rating; settings: 100 = 100% disease control; for pest or weed control at 200 ppm: Puccinia recondita, 168 h
Procedure, shortened: as §1

[5] = tested on: Alternaria solani; assay: Test D: tomato early blight, sprayed the day before inoculation, visual disease rating; settings: 100 = 100% disease control; for pest or weed control at 200 ppm: Alternaria solani, 168 h
Procedure, shortened: as §1

[6] = tested on: Septoria tritici; assay: Test G: wheat leaf blotch on wheat seedlings, sprayed the day before inoculation, visual disease rating; settings: 100 = 100% disease control; for pest or weed control at 200 ppm: Zymoseptoria tritici, 504 h
Procedure, shortened: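 Spray to run-off, 200 ppm (≈500 g/ha; starred = 40 ppm), acetone/water 50/50 + 250 ppm Trem® 014. Spore inoculation +1 d. 24° C saturated 48 h → 20° C 19 d. Visual rating.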

[7] = 200 ppm, 0 = no control relative to controls
[8] = 40 ppm (marked *), 0 = no control

COc1cc(F)c(-c2c(Cl)nc(Cl)n2-c2ccc(Cl)c(F)c2)c(F)c1 [compound 240]
Test F disease control rating ([1]; 200 ppm, 0 = no control): 100%
Test C disease control rating ([2]; 200 ppm, 0 = no control): 100%
Test J disease control rating ([3]; 200 ppm, 0 = no control): 100%
Test I disease control rating ([4]; 200 ppm, 0 = no control): 100%
Test D disease control rating ([5]; 200 ppm, 0 = no control): 100%
Test G disease control rating ([6]; 200 ppm, 0 = no control): 97%

Cc1nc(Cl)c(-c2c(F)cccc2F)n1Cc1ccccc1 [compound 118]
Test F disease control rating [1, 7]: 60%
Test C disease control rating [2, 7]: 99%
Test J disease control rating [3, 7]: 100%
Test I disease control rating [4, 7]: 99%
Test D disease control rating [5, 7]: 100%
Test G disease control rating [6, 7]: 94%

Fc1cc(-n2c(Br)nc(Cl)c2-c2c(F)cccc2Cl)ccc1Cl [compound 203]
Test F disease control rating ([1]; 200 ppm, 0 = no control): 87%
Test C disease control rating ([2]; 200 ppm, 0 = no control): 87%
Test J disease control rating ([3]; 200 ppm, 0 = no control): 99%
Test I disease control rating ([4]; 200 ppm, 0 = no control): 100%
Test D disease control rating ([5]; 200 ppm, 0 = no control): 98%
Test G disease control rating ([6]; 200 ppm, 0 = no control): 97%

Cc1ncn(-c2ccc(Cl)c(F)c2)c1-c1ccncc1 [compound 253]
Test F disease control rating ([1]; 200 ppm, 0 = no control): 0%
Test C disease control rating ([2]; 200 ppm, 0 = no control): 94%
Test J disease control rating ([3]; 200 ppm, 0 = no control): 0%
Test I disease control rating ([4]; 200 ppm, 0 = no control): 74%
Test D disease control rating ([5]; 200 ppm, 0 = no control): 0%
Test G disease control rating ([6]; 200 ppm, 0 = no control): 91%

Fc1cccc(F)c1-c1c(Cl)nc(Br)n1-c1ccc(Br)cc1 [compound 66]
Test F disease control rating [1, 7]: 99%
Test C disease control rating [2, 7]: 99%
Test J disease control rating [3, 7]: 99%
Test I disease control rating [4, 7]: 99%
Test D disease control rating [5, 7]: 100%
Test G disease control rating [6, 7]: 94%

Fc1ccc(-n2c(Br)nc(Cl)c2-c2ccc(F)cc2Cl)cc1 [compound 182]
Test F disease control rating ([1]; 200 ppm, 0 = no control): 73%
Test C disease control rating ([2]; 200 ppm, 0 = no control): 99%
Test J disease control rating ([3]; 200 ppm, 0 = no control): 99%
Test I disease control rating ([4]; 200 ppm, 0 = no control): 97%
Test D disease control rating ([5]; 200 ppm, 0 = no control): 100%
Test G disease control rating ([6]; 200 ppm, 0 = no control): 96%

Cc1nc(Cl)c(-c2c(F)cccc2Cl)n1-c1ccc(F)cc1 [compound 189]
Test F disease control rating ([1]; 200 ppm, 0 = no control): 51%
Test C disease control rating ([2]; 200 ppm, 0 = no control): 98%
Test J disease control rating ([3]; 200 ppm, 0 = no control): 99%
Test I disease control rating ([4]; 200 ppm, 0 = no control): 100%
Test D disease control rating ([5]; 200 ppm, 0 = no control): 100%
Test G disease control rating ([6]; 200 ppm, 0 = no control): 97%

Cc1nn(C)c(-c2c(F)cccc2F)c1-c1cccc(F)c1 [Compound 60, 5-(2,6-difluorophenyl)-4-(3-fluorophenyl)-1,3-dimethyl-1H-pyrazole]
pest or weed control at 200 ppm [1, 7]: 0%
pest or weed control at 200 ppm [2, 7]: 81%
pest or weed control at 200 ppm [3, 7]: 0%
pest or weed control at 200 ppm [4, 7]: 0%
pest or weed control at 200 ppm [5, 7]: 0%
pest or weed control at 200 ppm [6, 7]: 2%

Cc1nn(C)c(-c2c(F)cccc2Cl)c1-c1ccc(Cl)c(F)c1 [compound 63]
Test F disease control rating [1, 7]: 0%
Test C disease control rating [2, 7]: 0%
Test J disease control rating [3, 7]: 100%
Test I disease control rating [4, 7]: 41%
Test D disease control rating [5, 7]: 0%
Test G disease control rating [6, 7]: 33%

COc1ccc(F)c(-c2c(Br)ncn2-c2ccc(Cl)cc2)c1F [compound 449]
Test F disease control rating [1, 7]: 99%
Test C disease control rating [2, 7]: 99%
Test J disease control rating [3, 7]: 100%
Test I disease control rating [4, 7]: 99%
Test D disease control rating [5, 7]: 100%
Test G disease control rating [6, 7]: 97%

Fc1cc(F)c(-n2cnc(Cl)c2-c2ccc(Cl)cc2)c(F)c1 [compound 98]
Test F disease control rating ([1]; 40 ppm (marked *)): 0* %
Test C disease control rating ([2]; 40 ppm (marked *)): 0* %
Test J disease control rating ([3]; 40 ppm (marked *)): 0* %
Test I disease control rating ([4]; 40 ppm (marked *)): 0* %
Test D disease control rating ([5]; 40 ppm (marked *)): 0* %
Test G disease control rating ([6]; 40 ppm (marked *)): 27* %

Cc1ncn(-c2ccc(Cl)c(F)c2)c1-c1ccccn1 [compound 251]
Test F disease control rating ([1]; 200 ppm, 0 = no control): 0%
Test C disease control rating ([2]; 200 ppm, 0 = no control): 99%
Test J disease control rating ([3]; 200 ppm, 0 = no control): 0%
Test I disease control rating ([4]; 200 ppm, 0 = no control): 9%
Test D disease control rating ([5]; 200 ppm, 0 = no control): 0%
Test G disease control rating ([6]; 200 ppm, 0 = no control): 81%

Fc1ccc(-c2c(Cl)nnn2-c2ccc(Cl)cc2)c(F)c1 [Compound 24, 4-chloro-1-(4-chlorophenyl)-5-(2,4-difluorophenyl)-1H-1,2,3-triazole]
pest or weed control at 200 ppm [1, 7]: 0%
pest or weed control at 200 ppm [2, 7]: 90%
pest or weed control at 200 ppm [3, 7]: 95%
pest or weed control at 200 ppm [4, 7]: 28%
pest or weed control at 200 ppm [5, 7]: 0%
pest or weed control at 200 ppm [6, 7]: 67%

Fc1cc(-n2c(Cl)nc(Cl)c2-c2c(F)ccc(F)c2Cl)ccc1Cl [compound 220]
Test F disease control rating ([1]; 200 ppm, 0 = no control): 0%
Test C disease control rating ([2]; 200 ppm, 0 = no control): 98%
Test J disease control rating ([3]; 200 ppm, 0 = no control): 100%
Test I disease control rating ([4]; 200 ppm, 0 = no control): 99%
Test D disease control rating ([5]; 200 ppm, 0 = no control): 99%
Test G disease control rating ([6]; 200 ppm, 0 = no control): 97%

Cc1nc(Cl)c(Cc2c(F)cccc2F)n1-c1ccc(Cl)cc1 [compound 258]
Test F disease control rating ([1]; 200 ppm, 0 = no control): 42%
Test C disease control rating ([2]; 200 ppm, 0 = no control): 99%
Test J disease control rating ([3]; 200 ppm, 0 = no control): 78%
Test I disease control rating ([4]; 200 ppm, 0 = no control): 97%
Test D disease control rating ([5]; 200 ppm, 0 = no control): 0%
Test G disease control rating ([6]; 200 ppm, 0 = no control): 87%

COc1cc(F)c(-c2c(Cl)nc(C)n2-c2ccc(Cl)cc2)c(Cl)c1 [compound 172]
Test F disease control rating ([1]; 200 ppm, 0 = no control): 100%
Test C disease control rating ([2]; 200 ppm, 0 = no control): 99%
Test J disease control rating ([3]; 200 ppm, 0 = no control): 99%
Test I disease control rating ([4]; 200 ppm, 0 = no control): 99%
Test D disease control rating ([5]; 200 ppm, 0 = no control): 99%
Test G disease control rating ([6]; 200 ppm, 0 = no control): 98%

COc1ccc(-c2c(Cl)nc(C)n2-c2ccc(Cl)cc2)c(F)c1 [compound 113]
Test F disease control rating [1, 7]: 97%
Test C disease control rating [2, 7]: 98%
Test J disease control rating [3, 7]: 97%
Test I disease control rating [4, 7]: 97%
Test D disease control rating [5, 7]: 99%
Test G disease control rating [6, 7]: 95%

Cc1nc(Cl)c(-c2c(F)cccc2C(F)(F)F)n1-c1ccc(Cl)cc1 [compound 94]
Test F disease control rating [1, 7]: 0%
Test C disease control rating [2, 7]: 56%
Test J disease control rating [3, 7]: 100%
Test I disease control rating [4, 7]: 99%
Test D disease control rating [5, 7]: 53%
Test G disease control rating [6, 7]: 95%

N#Cc1cc(F)c(-c2c(Cl)ncn2-c2ccc(Cl)cc2)c(F)c1 [compound 193]
Test F disease control rating ([1]; 200 ppm, 0 = no control): 0%
Test C disease control rating ([2]; 200 ppm, 0 = no control): 99%
Test J disease control rating ([3]; 200 ppm, 0 = no control): 98%
Test I disease control rating ([4]; 200 ppm, 0 = no control): 97%
Test D disease control rating ([5]; 200 ppm, 0 = no control): 100%
Test G disease control rating ([6]; 200 ppm, 0 = no control): 98%

Cc1nc(Cl)c(-c2c(F)cccc2Cl)n1-c1ccc(Cl)c(F)c1 [compound 244]
Test F disease control rating ([1]; 200 ppm, 0 = no control): 99%
Test C disease control rating ([2]; 200 ppm, 0 = no control): 100%
Test J disease control rating ([3]; 200 ppm, 0 = no control): 100%
Test I disease control rating ([4]; 200 ppm, 0 = no control): 99%
Test D disease control rating ([5]; 200 ppm, 0 = no control): 100%
Test G disease control rating ([6]; 200 ppm, 0 = no control): 96%

Fc1cc(F)c(-n2c(Br)nc(Br)c2-c2ccc(Cl)cc2)c(F)c1 [compound 218]
Test F disease control rating [1, 8]: 0* %
Test C disease control rating [2, 8]: 99* %
Test J disease control rating [3, 8]: 73* %
Test I disease control rating [4, 8]: 80* %
Test D disease control rating [5, 8]: 99* %
Test G disease control rating [6, 8]: 91* %

Fc1ccc(-n2c(Cl)nc(Cl)c2-c2c(F)cc(F)cc2F)cc1 [compound 147]
Test F disease control rating ([1]; 200 ppm, 0 = no control): 82%
Test C disease control rating ([2]; 200 ppm, 0 = no control): 91%
Test J disease control rating ([3]; 200 ppm, 0 = no control): 99%
Test I disease control rating ([4]; 200 ppm, 0 = no control): 100%
Test D disease control rating ([5]; 200 ppm, 0 = no control): 100%
Test G disease control rating ([6]; 200 ppm, 0 = no control): 100%

Cc1nc(Cl)c(-c2c(F)ccc(F)c2Cl)n1-c1ccc(Cl)cc1 [compound 80]
Test F disease control rating [1, 7]: 100%
Test C disease control rating [2, 7]: 90%
Test J disease control rating [3, 7]: 100%
Test I disease control rating [4, 7]: 100%
Test D disease control rating [5, 7]: 100%
Test G disease control rating [6, 7]: 98%

Fc1cccc(F)c1-c1c(Cl)nc(Br)n1Cc1ccccc1 [compound 95]
Test F disease control rating [1, 7]: 95%
Test C disease control rating [2, 7]: 96%
Test J disease control rating [3, 7]: 100%
Test I disease control rating [4, 7]: 100%
Test D disease control rating [5, 7]: 97%
Test G disease control rating [6, 7]: 95%

COc1cc(F)c(-c2c(Cl)ncn2-c2cccc(F)c2)c(F)c1 [Compound 246, 4-chloro-5-(2,6-difluoro-4-methoxyphenyl)-1-(3-fluorophenyl)-1H-imidazole]
pest or weed control at 200 ppm ([1]; 200 ppm, 0 = no control): 95%
pest or weed control at 200 ppm ([2]; 200 ppm, 0 = no control): 100%
pest or weed control at 200 ppm ([3]; 200 ppm, 0 = no control): 99%
pest or weed control at 200 ppm ([4]; 200 ppm, 0 = no control): 100%
pest or weed control at 200 ppm ([5]; 200 ppm, 0 = no control): 100%
pest or weed control at 200 ppm ([6]; 200 ppm, 0 = no control): 93%
